The values that follow come from patent publication US20030073730A1, “Use of amino-isoxazolidone compounds for treatment of memory impairment following traumatic brain injury” (G.D. Searle & Co., priority 1994, published 2003).

SMILES strings stand for the structures.

The test system of assay [1] is patients with post-traumatic memory impairment. The assay can be described thus: Assay C: Post-Traumatic Memory Impairment Study (WMS and MAS). The format is in vivo, human. Set-up: MAS Visual Memory score, least-square mean corrected for baseline / MAS Visual Memory, mean change from baseline / WMS Logical Memory score, mean / WMS Visual Reproduction score, mean / MAS Visual Memory score, mean / MAS Short Term Memory score, mean / MAS Verbal Memory score, mean: scale not given here. Here is the method: The primary objective of this pilot study was to assess in patients with post-traumatic memory impairment: 1) The effect of a single 15 mg dose of cycloserine using the Wechsler Memory Scale (WMS) [D. Wechsler, Wechsler Memory Scale, Manual., Psychological Corporation, New York (1945)]; and 2) The effect of 5 multiple doses of 15 mg of cycloserine over 72 hours using the Memory Assessment Scales (MAS) [J. M Williams, The Memory Assessment Scales., Pyschological Assessment Resources, Odessa, Fla. (1991)]. The secondary objective of this study was to evaluate the safety of cycloserine in patients with traumatic brain injury.
The study was conducted by six investigators at six investigational sites in the United States. This was a multicenter, randomized, doubleblind, parallel group, placebo-controlled study in headtrauma patients who were experiencing significant memory disorder. Patients were randomized to receive placebo or 15 mg doses of cycloserine for a total of five equally spaced doses (morning and evening) over a 72-hour period. Safety and efficacy measurements were obtained at the screening and on Days 1 through 4 of the study. A sufficient number of patients were enrolled in the study to assure that 60 evaluable patients (30 in the cycloserine treatment group and 30 in the placebo treatment group) would complete the study.
Patients considered for enrollment were to have sustained closed head injury (ICD-9-CM#800) and post-traumatic memory impairment established by clinical examination supported by the Hahnemann Orientation and Memory Examination (HOME) [J. M. Williams, In: C. J. Long, L. Ross and M. Mutchnick, eds. Traumatic Brain Injury, Plenum, N.Y. (1990)]. The Anterograde Amnesia score was to be between 0 and 21 inclusive and the patient was to have sufficient cognitive recovery to complete the Hahnemann Memory Screening Test (MST) with a score of at least 9 [J. M. Williams, Ibid.]. Patients were to be at least 18 years of age, weighing between 40 and 100 kg, and female patients could not be at risk of pregnancy. Patients were to have a stable medical condition following the traumatic injury and be judged by the investigator to have adequate nutritional status. [Patients could have other traumatic injuries provided they were under treatment and there was no clinically significant infection or general sepsis.]
Criteria for exclusion from the study included current or history of significant systemic disorder, brain disorder, or any neurological disorder with cognitive implications other than traumatic brain injury (e.g., brain tumor). Also excluded were patients with current or history of diagnosed epilepsy or documented convulsions, or clinically significant abnormalities of thyroid function, folic acid or B12. Clinically significant cardiovascular, renal, pulmonary, hepatic, gastrointestinal, infectious or hematological illness could preclude patient participation in the study (judgment of the Investigator). Concomitant medication, or medication given within seven days prior to the start of the study could preclude patient participation in the study (judgment of the Investigator and/or Clinical Monitor). Inability to follow study procedures, poor comprehension of study language, uncorrectable loss of hearing or eyesight which would interfere with study participation excluded patients from the study. Patients who had received an acridine derivative within 90 days prior to enrollment or another investigational drug within 30 days enrollment or who were known to have a hypersensitivity to cycloserine or related compounds were also excluded. This study also excluded patients taking or expected to take Hydergine, cerebral vasodilators, nootropics, choline, lecithin or amino acids. Clinically significant laboratory values outside the normal range or previous admission to the study excluded patients from participation in the study.
All study medication was provided by G. D. Searle & Co., Skokie, Ill. […]

For assay [2], the system named is mentally disturbed patients. The note with it: 500 mg per day; cited from earlier work.
The test system of the next assay is elderly population. The note with it: absence of scopolamine, single oral doses of 5 and 15 mg; cited from earlier work.
The subject of assay [3] is normal young and elderly human volunteers. As to conditions: single oral doses of 5 and 15 mg; cited from earlier work.
In assay [4] the target is T1, NMDA receptor complex, [3H]TCP binding to synaptic plasma membranes (Rattus norvegicus, UniProt P35439).
T1 construct: Triton X-100 washed synaptic plasma membranes (SPM) prepared from rat forebrain; from tissue; host or cells: rat forebrain synaptic plasma membranes (male Sprague-Dawley, 30-45 days old), Triton X-100 washed
Description: Assay B: TCP Modulation Assay (stimulation of [3H]TCP binding). As to conditions: for effect on glycine dose-response of [3H]TCP binding: D-cycloserine 0-100 μM. As for the experimental part:
[^3H]TCP binding was performed using Triton X-100 washed synaptic plasma membranes (SPM) prepared from rat forebrain (30-45 day old, male SpragueDawley; Sasco, St. Charles, Mo.) as described previously [J. W. Thomas, W. F. Hood, J. B. Monahan, P. C. Contreras and T. L. O'Donohue, Brain Res., 442, 396-398 (1988)]. […] The samples were then filtered through glass fiber filters (Schleicher and Schuell #32) which were pretreated with 0.05% (v/v) polyethylenimine. The filters were washed and the radioactivity quantitated by liquid scintillation spectrometry. […] The EC50 values for the stimulation of [^3H]TCP binding were determined using a four parameter logistic regression analysis.

As to `NC1CONC1=O` (single isomer, unassigned) [D-cycloserine, 4-amino-3-isoxazolidone], in assay [1] (Baseline), the “MAS Short Term Memory score, mean” value is listed as 81.7; the “MAS Verbal Memory score, mean” value was determined as 78.2; the “MAS Visual Memory score, mean” value is reported as 77.2. Moreover, in assay [1] (Baseline, prior to first dose), the “WMS Logical Memory score, mean” value is recorded as 8.88 and the “WMS Visual Reproduction score, mean” value is given as 8.70. Also, in assay [1] (Day 2, after one 15 mg dose), the “WMS Logical Memory score, mean” value is given as 8.24 and the “WMS Visual Reproduction score, mean” value turned out to be 8.42. In addition, the “WMS Visual Reproduction score corrected for baseline versus placebo” value in assay [1] (Day 2, one dose, p=0.59) is “did not differ significantly”. In assay [1] (Day 2, one dose, p=0.72), the “WMS Logical Memory score corrected for baseline versus placebo” value is recorded as “did not differ significantly”. Besides, in assay [1] (Day 4, after five 15 mg doses), the “MAS Short Term Memory score, mean” value is reported as 85.9; the “MAS Verbal Memory score, mean” value is reported as 75.8; the “MAS Visual Memory score, mean” value was determined as 85.5. Moreover, the “MAS Visual Memory score, least-square mean corrected for baseline” value in assay [1] (Day 4, five 15 mg doses, placebo 78.7) is 87.5. In assay [1] (Day 4, five 15 mg doses, placebo −1.50), the “MAS Visual Memory, mean change from baseline” value is reported as 8.54. In addition, in assay [1] (Day 4, p=0.023), the “MAS Visual Memory score versus placebo” value is recorded as “significantly higher”. In addition, in assay [1] (Day 4, p=0.31), the “MAS Verbal Memory versus placebo” value is “not significantly different”. For the same compound, the “MAS Short Term Memory versus placebo” value in assay [1] (Day 4, p=0.72) is on record as “not significantly different”. In addition, in assay [2], the “clinical response in mental disorders” value was “improvements in depression, insomnia, anexoria or tension were found for some patients”. Further, in the assay on elderly population, the “effect on cognitive parameters” value is “significant positive effects on the cognitive parameters”. Also, the “effect on scopolamine-induced memory deficits” value in assay [3] was “can ameliorate some memory deficits induced by scopolamine”. In addition, in assay [4] (glycine concentrations 0.1-15 μM), the “effect on glycine dose-response of [3H]TCP binding” value is “rightward shift in the dose-response curve”. For the same compound, in assay [4] (glycine concentrations below 0.1 μM), the “effect on glycine dose-response of [3H]TCP binding” value is given as “potentiated the glycine stimulation”. In addition, the “effect on glycine stimulation of [3H]TCP binding” value in assay [4] (in the presence of glycine 0.1-0.6 μM) was “reduces the maximal level of glycine stimulation”.

Regarding `NCC(=O)O` [Glycine], in assay [4] (0.6 μM glycine, basal binding 2583±381 DPM), the “maximum specific [3H]TCP binding” value came to 4712±779 DPM.

With `c1csc(C2(N3CCCCC3)CCCCC2)c1` [[^3H]TCP], the affinity in assay [4] (basal conditions), expressed as Kd, was 0.044 µM.

As usually defined, the Kd is the free concentration of one partner at which half of the binding sites on the other are occupied at equilibrium, for simple one-to-one binding.
